According to patent US8685924B2, “Preventives/remedies for stress urinary incontinence and method of screening the same” (Takeda Pharmaceutical Company Limited, priority 2004, dated 2014):

System: urethane-anesthetized female rats
Assay: Antagonism of the leak point pressure increase by WAY-161503 / WAY-163909, direct bladder compression method (Example 4)
Assay type: in vivo, rat
Settings: agonist 0.3 mg/kg, i.v., antagonist: solvent, mean ± SEM
Procedure: SD female rats (body weight 180-350 g) were anesthetized with urethane (Wako Pure Chemical Industries, Ltd.), and halothane (Takeda Pharmaceutical Company Limited) anesthesia was added when necessary during operation.
The spinal cord was transected at T8-9 level to eliminate the reflex voiding. The lower abdomen was incised in the median line, a catheter for intravesical pressure measurement (PE-90, Clay Adams) was inserted into the bladder and secured with a ligature, and the intravesical pressure was measured via a pressure transducer. Urine was emptized in advance by bilaterally pressing the bladder with two swabs, and a 0.1% Evans blue (Merck) solution (0.4 mL) was injected into the bladder. The bladder was gradually compressed bilaterally with two swabs, and the intravesical pressure upon saline leakage from the urethral orifice was measured and defined as a leak point pressure. The measurement of the leak point pressure was repeated, and the average value of the final five stable measures was taken as the value before drug administration. Thereafter, the drug was intravenously administered, the leak point pressure was measured again 20 min later, and the value after the drug administration was determined. DOI, mCPP and eltoprazine were dissolved in saline, and other drugs were dissolved in DMA/PEG400 (1:1), and intravenously administered at 1 ml/kg and 0.5 mg/kg, respectively. Depending on the experiment, RS-102221 or SB221284 (showing serotonin 5-HT2C receptor antagonist activity) was administered, 5 min later, WAY-161503 or WAY-163909 was administered, leak point pressure was measured 10 min later, and a competitive assay with the action of WAY-161503 or WAY-163909 was performed. RS-102221 and SB221284 were both dissolved in DMA/PEG400 (1:1), and intravenously administered at 0.5 ml/kg.

O=C1Nc2cc(Cl)c(Cl)cc2N2CCNCC12 (stereo not drawn) [WAY-161503]
leak point pressure after drug administration: 87.1 ± 4.3 cmH2O | leak point pressure increase: 17.4 ± 1.9 cmH2O | leak point pressure before drug administration (baseline): 69.7 ± 3.9 cmH2O
